Experimental data: patent US9670227B2, “Thienopyrimidine derivatives, a process for their preparation and pharmaceutical compositions containing them” (LES LABORATOIRES SERVIER, priority 2013, dated 2017)

The compounds below were run against Mcl-1 protein (UniProtKB primary accession number: Q07820) (Homo sapiens, UniProt Q07820) (assay: Inhibition of Mcl-1 by fluorescence polarisation, Method 1). Conditions: fluorescence polarisation; Method 1, or Method 2; read-out: IC50 (M) Mcl-1 FP.
Assay type: binding
Procedure, shortened: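 Buffer of 10 mM HEPES pH 7.4 with 150 mM NaCl and 0.05% Tween 20 held 5 nM Mcl-1 and 1 nM fluorescein-tagged ligand (final). Compounds were tested as 11-point serial dilutions at 5% final DMSO, and binding was read by FP.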

Chain of Mcl-1 protein (Q07820 whole entry): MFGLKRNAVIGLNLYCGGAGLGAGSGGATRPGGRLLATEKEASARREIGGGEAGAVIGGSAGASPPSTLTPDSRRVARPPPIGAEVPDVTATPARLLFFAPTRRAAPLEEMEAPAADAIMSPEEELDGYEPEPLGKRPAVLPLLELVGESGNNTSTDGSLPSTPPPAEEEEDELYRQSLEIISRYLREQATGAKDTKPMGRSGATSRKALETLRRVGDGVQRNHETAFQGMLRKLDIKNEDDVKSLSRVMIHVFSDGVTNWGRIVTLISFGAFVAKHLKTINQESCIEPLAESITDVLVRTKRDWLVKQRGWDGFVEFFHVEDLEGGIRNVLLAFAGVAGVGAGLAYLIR

Row | Compound | IC50
1 | COc1ccccc1CC(Oc1ncnc2sc(-c3ccc(-c4ccccc4)o3)c(-c3ccc(OCCN4CCN(C)CC4)c(Cl)c3C)c12)C(=O)O [Example 586, (2R)-2-{[(5Sa)-5-{3-chloro-2-methyl-4-[2-(4-methylpiperazin-1-yl)ethoxy]phenyl}-6-(5-phenylfuran-2-yl)thieno[2,3-d]pyrimidin-4-yl]oxy}-3-(2-methoxyphenyl)propanoic acid] | 1.4e-06 M
2 | COCCCc1sc2ncnc(OC(Cc3ccccc3OCc3ccnc(OC)n3)C(=O)O)c2c1-c1ccc(OCCN2CCN(C)CC2)c(Cl)c1C [Example 599, (2R)-2-{[(5Sa)-5-{3-chloro-2-methyl-4-[2-(4-methylpiperazin-1-yl)ethoxy]phenyl}-6-(3-methoxypropyl)thieno[2,3-d]pyrimidin-4-yl]oxy}-3-{2-[(2-methoxypyrimidin-4-yl)methoxy]phenyl}propanoic acid] | 1.1e-08 M
3 | CCCCn1nccc1COc1ccccc1CC(Oc1ncnc2sc(C#N)c(-c3ccc(OCCN4CCN(C)CC4)c(Cl)c3C)c12)C(=O)O [Example 614, (2R)-3-{2-[(1-butyl-1H-pyrazol-5-yl)methoxy]phenyl}-2-[((5Sa)-5-{3-chloro-2-methyl-4-[2-(4-methylpiperazin-1-yl)ethoxy]phenyl}-6-cyanothieno[2,3-d]pyrimidin-4-yl)oxy]propanoic acid] | 8.4e-09 M
4 | CCCCn1nccc1COc1ccccc1CC(Oc1ncnc2sc(-c3ccc(N)nc3)c(-c3ccc(OCCN4CCN(C)CC4)c(Cl)c3C)c12)C(=O)O [Example 618, (2R)-2-{[6-(6-aminopyridin-3-yl)-(5Sa)-5-{3-chloro-2-methyl-4-[2-(4-methylpiperazin-1-yl)ethoxy]phenyl}thieno[2,3-d]pyrimidin-4-yl]oxy}-3-{2-[(1-butyl-1H-pyrazol-5-yl)methoxy]phenyl}propanoic acid] | 5.6e-09 M
5 | CCOC(=O)C(Cc1ccccc1OC)Oc1ncnc2sc(-c3ccco3)c(-c3ccc(OCCN4CCN(C)CC4)c(Cl)c3C)c12 [Example 627, ethyl (2R)-2-{[(5Sa)-5-{3-chloro-2-methyl-4-[2-(4-methylpiperazin-1-yl)ethoxy]phenyl}-6-(furan-2-yl)thieno[2,3-d]pyrimidin-4-yl]oxy}-3-(2-methoxyphenyl)propanoate] | 4.9e-07 M
6 | COc1ccccc1CC(Oc1ncnc2sc(-c3ccc(F)cc3)c(-c3ccc(OCCN4CCN(C)CC4)c(Cl)c3C)c12)C(=O)OCC(F)(F)F [Example 641, 2,2,2-trifluoroethyl (2R)-2-{[(5Sa)-5-{3-chloro-2-methyl-4-[2-(4-methylpiperazin-1-yl)ethoxy]phenyl}-6-(4-fluorophenyl)thieno[2,3-d]pyrimidin-4-yl]oxy}-3-(2-methoxyphenyl)propanoate] | 9.6e-07 M
7 | Cc1c(-c2c(-c3ccc(F)cc3)sc3ncnc(OC(Cc4ccccc4OCC4CCCO4)C(=O)O)c23)ccc(OCCN2CCN(CCCCN)CC2)c1Cl [Example 645, (2R)-2-{[(5Sa)-5-(4-{2-[4-(4-aminobutyl)piperazin-1-yl]ethoxy}-3-chloro-2-methylphenyl)-6-(4-fluorophenyl)thieno[2,3-d]pyrimidin-4-yl]oxy}-3-{2-[(2R)-tetrahydrofuran-2-ylmethoxy]phenyl}propanoic acid] | 2.2e-08 M

Same assay, conditions: partial inhibitors; @ 10 uM test compound

Row | Compound | percentage fluorescence polarisation inhibition, Mcl-1 FP
8 | CCOC(=O)[C@@H](Cc1ccccc1OCc1ccnn1C(C)C)Oc1ncnc2sc(-c3ccc(F)cc3)c(-c3ccc(OCCN4CCN(C)CC4)c(Cl)c3C)c12 [Example 624, ethyl (2R)-2-{[(5Sa)-5-{3-chloro-2-methyl-4-[2-(4-methylpiperazin-1-yl)ethoxy]phenyl}-6-(4-fluorophenyl)thieno[2,3-d]pyrimidin-4-yl]oxy}-3-(2-{[1-(propan-2-yl)-1H-pyrazol-5-yl]methoxy}phenyl)propanoate] | 26.95% @ 10 uM
9 | CCOC(=O)[C@@H](Cc1ccccc1OCc1ccnc(OC)n1)Oc1ncnc2sc(-c3ccc(F)cc3)c(-c3ccc(OCCN4CCN(C)CC4)c(Cl)c3C)c12 [Example 626, ethyl (2R)-2-{[(5Sa)-5-{3-chloro-2-methyl-4-[2-(4-methylpiperazin-1-yl)ethoxy]phenyl}-6-(4-fluorophenyl)thieno[2,3-d]pyrimidin-4-yl]oxy}-3-{2-[(2-methoxypyrimidin-4-yl)methoxy]phenyl}propanoate] | 39.45% @ 10 uM
10 | CCOC(=O)[C@@H](Cc1ccccc1OC[C@H]1CCCO1)Oc1ncnc2sc(-c3ccc(F)cc3)c(-c3ccc(OCCN4CCN(C)CC4)c(Cl)c3C)c12 [Example 628, ethyl (2R)-2-{[(5Sa)-5-{3-chloro-2-methyl-4-[2-(4-methylpiperazin-1-yl)ethoxy]phenyl}-6-(4-fluorophenyl)thieno[2,3-d]pyrimidin-4-yl]oxy}-3-{2-[(2R)-tetrahydrofuran-2-ylmethoxy]phenyl}propanoate] | 33.2% @ 10 uM
11 | CCOC(=O)[C@@H](Cc1ccccc1OC[C@H]1CCCO1)Oc1ncnc2sc(-c3ccc(F)cc3)c(-c3ccc(OCCN4CCOCC4)c(Cl)c3C)c12 [Example 629, ethyl (2R)-2-{[(5Sa)-5-{3-chloro-2-methyl-4-[2-(morpholin-4-yl)ethoxy]phenyl}-6-(4-fluorophenyl)thieno[2,3-d]pyrimidin-4-yl]oxy}-3-{2-[(2R)-tetrahydrofuran-2-ylmethoxy]phenyl}propanoate] | 14.95% @ 10 uM
12 | CCOC(=O)C(Cc1ccccc1OCC1CCCO1)Oc1ncnc2sc(-c3ccc(F)cc3)c(-c3ccc(OCCN(C)C)c(Cl)c3C)c12 [Example 630, ethyl (2R)-2-{[(5Sa)-5-{3-chloro-4-[2-(dimethylamino)ethoxy]-2-methylphenyl}-6-(4-fluorophenyl)thieno[2,3-d]pyrimidin-4-yl]oxy}-3-{2-[(2R)-tetrahydrofuran-2-ylmethoxy]phenyl}propanoate] | 27.95% @ 10 uM
13 | CCOC(=O)[C@@H](Cc1ccccc1OCc1cnccn1)Oc1ncnc2sc(-c3ccc(F)cc3)c(-c3ccc(OCCN4CCN(C)CC4)c(Cl)c3C)c12 [Example 631, ethyl (2R)-2-{[(5Sa)-5-{3-chloro-2-methyl-4-[2-(4-methylpiperazin-1-yl)ethoxy]phenyl}-6-(4-fluorophenyl)thieno[2,3-d]pyrimidin-4-yl]oxy}-3-[2-(pyrazin-2-ylmethoxy)phenyl]propanoate] | 56% @ 10 uM
14 | CCOC(=O)[C@@H](Cc1ccccc1OCc1cnccn1)Oc1ncnc2sc(-c3ccc(F)cc3)c(-c3ccc(OCCN4CCOCC4)c(Cl)c3C)c12 [Example 632, ethyl (2R)-2-{[(5Sa)-5-{3-chloro-2-methyl-4-[2-(morpholin-4-yl)ethoxy]phenyl}-6-(4-fluorophenyl)thieno[2,3-d]pyrimidin-4-yl]oxy}-3-[2-(pyrazin-2-ylmethoxy)phenyl]propanoate] | 41.8% @ 10 uM
15 | CCOC(=O)[C@@H](Cc1ccccc1OC)Oc1ncnc2sc(-c3ccsc3)c(-c3ccc(OCCN4CCN(C)CC4)c(Cl)c3C)c12 [Example 633, ethyl (2R)-2-{[(5Sa)-5-{3-chloro-2-methyl-4-[2-(4-methylpiperazin-1-yl)ethoxy]phenyl}-6-(thiophen-3-yl)thieno[2,3-d]pyrimidin-4-yl]oxy}-3-(2-methoxyphenyl)propanoate] | 40.2 % @ 10 uM
16 | CCOC(=O)[C@@H](Cc1ccccc1OCC(F)(F)F)Oc1ncnc2sc(-c3ccc(F)cc3)c(-c3ccc(OCCN(C)C)c(Cl)c3C)c12 [Example 634, ethyl (2R)-2-{[(5Sa)-5-{3-chloro-4-[2-(dimethylamino)ethoxy]-2-methylphenyl}-6-(4-fluorophenyl)thieno[2,3-d]pyrimidin-4-yl]oxy}-3-[2-(2,2,2-trifluoroethoxy)phenyl]propanoate] | 10.7% @ 10 uM
17 | CCOC(=O)[C@@H](Cc1ccccc1OCC(F)(F)F)Oc1ncnc2sc(-c3ccc(F)cc3)c(-c3ccc(OCCN4CCN(C)CC4)c(Cl)c3C)c12 [Example 635, ethyl (2R)-2-{[(5Sa)-5-{3-chloro-2-methyl-4-[2-(4-methylpiperazin-1-yl)ethoxy]phenyl}-6-(4-fluorophenyl)thieno[2,3-d]pyrimidin-4-yl]oxy}-3-[2-(2,2,2-trifluoroethoxy)phenyl]propanoate] | 50.75% @ 10 uM
18 | CCOC(=O)[C@@H](Cc1ccccc1OCC(F)(F)F)Oc1ncnc2sc(-c3ccc(F)cc3)c(-c3ccc(OCCN4CCOCC4)c(Cl)c3C)c12 [Example 637, ethyl (2R)-2-{[(5Sa)-5-{3-chloro-2-methyl-4-[2-(morpholin-4-yl)ethoxy]phenyl}-6-(4-fluorophenyl)thieno[2,3-d]pyrimidin-4-yl]oxy}-3-[2-(2,2,2-trifluoroethoxy)phenyl]propanoate] | 5.9% @ 10 uM
19 | COc1ccccc1C[C@@H](Oc1ncnc2sc(-c3ccc(F)cc3)c(-c3ccc(OCCN4CCN(C)CC4)c(Cl)c3C)c12)C(=O)Oc1ccc2c(c1)CCC2 [Example 640, 2,3-dihydro-1H-inden-5-yl (2R)-2-{[(5Sa)-5-{3-chloro-2-methyl-4-[2-(4-methylpiperazin-1-yl)ethoxy]phenyl}-6-(4-fluorophenyl)thieno[2,3-d]pyrimidin-4-yl]oxy}-3-(2-methoxyphenyl)propanoate] | 42.4% @ 10 uM
20 | CCOC(=O)[C@@H](Cc1ccccc1OC)Oc1ncnc2sc(-c3ccc(F)cc3)c(-c3ccc(OCCN4CCN(C)CC4)c(Cl)c3C)c12 [Example 642, ethyl (2R)-2-{[(5Sa)-5-{3-chloro-2-methyl-4-[2-(4-methylpiperazin-1-yl)ethoxy]phenyl}-6-(4-fluorophenyl)thieno[2,3-d]pyrimidin-4-yl]oxy}-3-(2-methoxyphenyl)propanoate] | 11% @ 10 uM

Same assay, conditions: partial inhibitors; @ 1000 uM test compound

Row | Compound | percentage fluorescence polarisation inhibition, Mcl-1 FP
21 | CCOC(=O)[C@@H](Cc1ccccc1OC)Oc1ncnc2sc(-c3ccsc3)c(-c3ccc(O)c(Cl)c3C)c12 [Example 636, ethyl (2R)-2-{[(5Sa)-5-(3-chloro-4-hydroxy-2-methylphenyl)-6-(thiophen-3-yl)thieno[2,3-d]pyrimidin-4-yl]oxy}-3-(2-methoxyphenyl)propanoate] | 71.7 % @ 1000 uM
